Some test systems named below: M19-MEL; SNB-78; KM-20L2; DMS-273; LXFL 529; XF498; HOP-18; BT-549; RXF 631.
Assay in all cases: NCI tumour cell line growth inhibition, 48 h

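Protocol summary: plate cells (96-well), add compound at 5 concentrations, incubate 48 h, interpolate endpoints linearly. GI50 is the concentration that inhibits growth by half.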 Calls of active or inactive are those of the source. Rule as the data show it: active = GI50 up to about 1.1 µM and inactive = higher.

These results are taken from ChEMBL document CHEMBL1201862, “PubChem BioAssay data set” (2004).

On to `CC1=CC2=C(C)C3(CC3)[C@@](C)(O)C(=O)C2=C1`, for which the GI50 is 0.254 µM (active) with M19-MEL; 0.274 µM (active) with SNB-78; 0.213 µM (active) with KM-20L2; 0.189 µM (active) in the assay on DMS-273; 0.223 µM (active) with LXFL 529; 0.17 µM (active) in the assay on XF498. In addition, the GI50 in the assay on HOP-18 was 0.27 µM (active).

Turning to `COc1cc(/C=C(\C#N)c2nc3ccccc3o2)ccc1O`, the GI50 with BT-549 is 16.1 µM (inactive).

For the compound `O=C1CCC(NC(=O)c2ccccc2)C(=O)N1` (stereo not given), in the assay with BT-549, the GI50 was > 100 µM (inactive).

For the compound `COC1=C(N)C(=O)c2nc(C)ccc2C1=O`, the GI50 in the assay on M19-MEL is 0.308 µM (active); with SNB-78 it was 3.52 µM (inactive); in the assay on KM-20L2, 2.3 µM (inactive); in the assay on DMS-273 it was 1.83 µM (inactive); with LXFL 529 it was 2.43 µM (inactive); with XF498 it was 1.51 µM (inactive). Besides, the GI50 in the assay on HOP-18 is 1.98 µM (inactive).

`CCc1nc2cc3cccnc3c(Cl)c2[nH]c1=O`: the GI50 in the assay on BT-549 is 65.9 µM (inactive).

As to `CN(C)CCNC(=O)c1cccc2ccc(-c3ccc(Br)cc3)nc12`, the GI50 in the assay on M19-MEL was 2.24 µM (inactive); in the assay with SNB-78, 8.87 µM (inactive); with KM-20L2 it was 1.78 µM (inactive); with DMS-273, 1.16 µM (inactive); with XF498, 2.16 µM (inactive); in the assay on HOP-18, 1.91 µM (inactive).

Take `Cc1c(-c2ccccc2)[nH]c2cc(Cl)ccc2c1=O`: the GI50 with BT-549 is > 100 µM (inactive).

As for `CN1C(C)(C)CC(=O)C(Br)C1(C)C` (stereo not given), in the assay on BT-549, the GI50 is > 100 µM (inactive).

For `N#C/C(=C/c1ccc[nH]1)P(=O)(O)O`, the GI50 in the assay on M19-MEL, with SNB-78, in the assay with KM-20L2, in the assay with DMS-273, with LXFL 529 and with XF498 was > 100 µM (inactive) throughout.

As to `O=C1OC2C(O)COC2(O)C1(O)Cc1c[nH]c2ccccc12.O=C1OC2C(O)COC2(OCc2c[nH]c3ccccc23)C1O` (stereo not given), the GI50 with M19-MEL, in the assay on SNB-78, with KM-20L2, in the assay with DMS-273, with LXFL 529 and in the assay with XF498 was > 100 µM (inactive) each time. Further, in the assay on HOP-18, the GI50 was > 100 µM (inactive).

On to `CC1=C2C=CC(=O)C[C@@]2(C)CCC1`, for which the GI50 in the assay with M19-MEL, with RXF 631, in the assay on SNB-78, with DMS-273, with LXFL 529 and in the assay on XF498 was > 100 µM (inactive) throughout.

Turning to `COC(O)C(=O)c1c2c(cc3c1CCC3)CCCC2` (stereo not given), in the assay on BT-549, the GI50 was 2.39 µM (inactive).

With `Cn1c2ccc(C3=NCCN3)cc2c2cc(C3=NCCN3)ccc21`, the GI50 with BT-549 is > 100 µM (inactive).

As for `c1cc2c(s1)-c1sccc1C21OCCO1`, the GI50 in the assay on BT-549 was 50.5 µM (inactive).

`NC12Oc3cc(O)cc(O)c3C1(c1ccc(Cl)cc1)c1c(O)cc(O)cc1O2` (stereo not given): in the assay on BT-549, the GI50 is > 100 µM (inactive).

Take `COc1ccc2nc3c([N+](=O)[O-])ccc4c3c(c2c1)N=CN4CCCN(C)C`: the GI50 with BT-549 was 8.22 µM (inactive).

On to `Cc1nc2c(s/c(=N\N)n2-c2ccccc2)c(=O)[nH]1`, for which the GI50 in the assay on M19-MEL, in the assay on SNB-78, in the assay on KM-20L2, in the assay on DMS-273, in the assay with LXFL 529 and with XF498 was > 100 µM (inactive) in each case.

As for `COc1ccc(Nc2nc(N)c(C(=O)c3cccs3)s2)cc1`, in the assay on BT-549, the GI50 is 23.3 µM (inactive).

For `CCCN1CN(C(C(=O)N[C@@H]2C(=O)N3C(C(=O)O)=C(C)CSC23)c2ccccc2)CSC1=S` (stereo not given in full), the GI50 in the assay with M19-MEL, in the assay with SNB-78, with KM-20L2, in the assay with DMS-273, in the assay on LXFL 529 and with HOP-18 was > 100 µM (inactive) each time.

Turning to `CSC1=Nc2ccccc2-c2nc3ccccc3cc2C1`, in the assay with BT-549, the GI50 was > 100 µM (inactive).

On to `Nc1ccc(C(=O)N/C(=C\c2ccc3c(c2)OCO3)c2nc3c(O)nc(S)nc3[nH]2)cc1`, for which the GI50 in the assay with M19-MEL, in the assay on RXF 631, in the assay with SNB-78, with KM-20L2, with LXFL 529 and with XF498 was > 100 µM (inactive) each time.

On to `Cc1ccc(CN2CCN(Cc3ccc(C)o3)C(C)C2)o1` (stereo not given), for which, in the assay on BT-549, the GI50 is > 100 µM (inactive).

As to `COc1ccc(C2C=C(c3ccc(C)cc3)N(c3ccc(OC)cc3[N+](=O)[O-])C3C(=O)OC(=O)C23)c(OC)c1` (stereo not given), in the assay on BT-549, the GI50 was 53.3 µM (inactive).

Consider `O=C(O)COc1ccc(C(=O)/C(SS/C(C(=O)c2ccc(OCC(=O)O)c(Cl)c2Cl)=C2\C=C(c3ccc(Br)cc3)SS2)=C2/C=C(c3ccc(Br)cc3)SS2)c(Cl)c1Cl`, for which the GI50 in the assay with M19-MEL was 5.45 µM (inactive); in the assay with SNB-78 it was 4.57 µM (inactive); with KM-20L2, 39.6 µM (inactive); with DMS-273, 23.8 µM (inactive); in the assay with LXFL 529, 1.29 µM (inactive); in the assay on XF498, 3.19 µM (inactive). For the same compound, the GI50 in the assay on HOP-18 is 5.48 µM (inactive); in the assay on BT-549 it was 8.13 µM (inactive).

As for `Cc1cc(C)n(C(=O)C(C)Sc2nnc(SC(C)C(=O)n3nc(C)cc3C)s2)n1` (stereo not given), the GI50 with BT-549 is > 100 µM (inactive).

Turning to `O=[N+]([O-])c1ccc(-c2cn(-c3ccc(Cl)cc3)cn2)cc1`, the GI50 with BT-549 was 59.2 µM (inactive).

As to `COCC1OC(OC2C3=C(C(C)C)CCC3(C)/C=C3\C(CCC3(O)COC)C(C)C2O)C(O)C2OC3OC12OC3(C)C1CO1` (stereo not given), in the assay with BT-549, the GI50 is 16.6 µM (inactive).

On to `C=C1CC(C)(COc2ccc3ccc(=O)oc3c2)OC1=O` (stereo not given), for which the GI50 in the assay on BT-549 was 1.02 µM (active).

In the case of `O=c1c2ccccc2nc(-c2ccccc2)n1NC(=S)Nc1ccccc1`, the GI50 with M19-MEL was 94.4 µM (inactive); with DMS-273, > 100 µM (inactive); in the assay on LXFL 529, 81.8 µM (inactive); with HOP-18, > 100 µM (inactive).

In the case of `COc1cc2c(cc1OC)C1C(O)C(OC)C(Br)C3(Br)CCN(C2)C13` (stereo not given), the GI50 in the assay on BT-549 is > 100 µM (inactive).

`CC(=O)O[C@H]1CC[C@H]2[C@@H]3CCC4=C/C(=N/OCCN(C)C)CC[C@]4(C)[C@H]3CC[C@]12C`: the GI50 in the assay on BT-549 is 12.8 µM (inactive).

Turning to `O=C(Cn1c2ccc(Br)cc2c2nc3ccccc3nc21)NNC(=O)NC1CCCCC1`, the GI50 in the assay on BT-549 was > 100 µM (inactive).

As for `CC1SC2=NC3=C(c4ccccc4C3=O)C(c3ccc(F)cc3)N2C1=O` (stereo not given), the GI50 is > 100 µM (inactive) with M19-MEL; > 100 µM (inactive) with KM-20L2; > 100 µM (inactive) in the assay with DMS-273; 86.3 µM (inactive) in the assay with LXFL 529; 89.7 µM (inactive) in the assay with XF498.

With `Cn1c(CO)ccc1-c1ccc(-c2ccc(CO)[se]2)[se]1`, the GI50 with BT-549 was 11.1 µM (inactive).

For `CC(C)CC(C(N)=O)C(=O)NC(Cc1ccccc1)NC(=O)CNC(=O)C(C)NC(=O)C(N)Cc1ccc(O)cc1` (stereo not given), the GI50 in the assay with BT-549 is > 100 µM (inactive).

As to `O=S(=O)(Cc1nc2ccccc2s1)c1nc2ccccc2s1`, the GI50 in the assay on BT-549 was 16.5 µM (inactive).

Regarding `C=C1C(=O)O[C@@]23C1CC[C@@H](C)C2CC[C@@]1(C)OC31` (stereo not given in full), the GI50 with BT-549 was 7.71 µM (inactive).

Regarding `Cc1cc(N(CCC#N)CCC#N)ccc1C(/N=N/c1ccc(Cl)cc1)=N\NC(=O)c1ccccc1`, the GI50 in the assay with BT-549 is 25.6 µM (inactive).

Turning to `CC(=O)OC(C)(C)CCC(=O)[C@](C)(O)[C@H]1[C@H](O)C[C@@]2(C)[C@@H]3CC=C4C(C)=C(OC5OC(CO)C(O)C(O)C5O)C(=O)C[C@@H]4[C@]3(C)C(=O)C[C@]12C` (stereo not given in full), the GI50 in the assay with BT-549 was > 100 µM (inactive).

Regarding `CC(=O)c1ccc(NCN2C(=O)c3ccccc3C2=O)cc1`, in the assay with BT-549, the GI50 was > 100 µM (inactive).

With `CCOC(=O)C1C(=O)C=C(c2cc(C)ccc2O)CC1c1cccc(Cl)c1` (stereo not given), the GI50 in the assay on BT-549 is 44.6 µM (inactive).

For the compound `COc1cc2c(cc1OCCCC(=O)Nc1cc(C(=O)Nc3cc(C(=O)Nc4cc(C(=O)NCCCN(C)C)n(C)n4)n(C)c3)n(C)c1)N=CC1CCCN1C2=O` (stereo not given), in the assay on BT-549, the GI50 was 22.1 µM (inactive).

With `O=C(O)NC(c1ccccc1)C(NC(=O)c1ccccc1)c1ccccc1` (stereo not given), the GI50 in the assay on M19-MEL, in the assay with SNB-78, with KM-20L2, with XF498 and in the assay on HOP-18 was > 100 µM (inactive) throughout.

In the case of `C=C1C(=O)O[C@H]2C1C[C@H](O)[C@@]1(C)OC1CC[C@@]1(C)O[C@H]21` (stereo not given in full), the GI50 in the assay with BT-549 was 13.8 µM (inactive).

Turning to `O=C1CC(Sc2nc3ccc(I)cc3c(=O)n2Cc2ccccc2)C(=O)NN1` (stereo not given), the GI50 in the assay with BT-549 is 15.7 µM (inactive).

`N#C/C(=C\c1cc(F)cc(F)c1)c1ccccn1`: the GI50 in the assay with BT-549 was 30.1 µM (inactive).

On to `OC12c3ccccc3C1CCCCCCCCCC21OCCO1` (stereo not given), for which the GI50 with M19-MEL, with SNB-78, with KM-20L2, in the assay with DMS-273, with LXFL 529 and with HOP-18 was > 100 µM (inactive) throughout.

As to `CCOC(=O)C(C(=O)OCC)P(=S)(S)c1ccccc1` (stereo not given), the GI50 in the assay with M19-MEL, in the assay with RXF 631, with KM-20L2, with DMS-273, in the assay on LXFL 529 and in the assay with XF498 was > 100 µM (inactive) throughout.

Take `C=C[C@]1(C)CC(O)C2C(=C)C(=O)OC2[C@H]1C(=C)C=O` (stereo not given in full): the GI50 is 2.52 µM (inactive) in the assay on M19-MEL; 3.56 µM (inactive) in the assay with SNB-78; 5.47 µM (inactive) in the assay with KM-20L2; 1.64 µM (inactive) with LXFL 529; 5.41 µM (inactive) with HOP-18; 3.27 µM (inactive) in the assay on BT-549.

On to `NS(=O)(=O)c1ccc(-n2c(-c3cccs3)nc3ccc(I)cc3c2=O)cc1`, for which the GI50 with BT-549 is 16.3 µM (inactive).

`COc1cc2ccccc2c2cc([N+](=O)[O-])oc12`: in the assay with BT-549, the GI50 was 1.64 µM (inactive).

Consider `O=C1c2cccnc2-c2nccc3c2c1nc1ccccc13` [ASCIDIDEMIN], for which the GI50 in the assay on BT-549 was 0.169 µM (active).

Turning to `Nc1ccccc1NC(=O)c1ccc(CNC(=O)OCc2cccnc2)cc1` [ENTINOSTAT], the GI50 in the assay on BT-549 is 3.5 µM (inactive).

With `CC1CC(C)(O)CC(C(O)CC2CC(=O)NC(=O)C2)C1=O` (stereo not given) [RESACTIN A], in the assay with BT-549, the GI50 was 0.113 µM (active).
